Values quoted from earlier work as cited in patent US5503831A, “Lipase inhibitor derived from a defatted rice germ” (Yakurigaku Chuo Kenkyusho, priority 1993, dated 1996).

Tested on: lipase
Conditions: in the presence of bile acids (sodium taurocholic acid for wheat germ protein), emulsified lipids

Substance | Action on lipase in the presence of bile acids
β-lactoglobulin | does not exert such an action
serum albumin | does not exert such an action
